Results as given in ChEMBL document CHEMBL5291721, “A preclinical secondary pharmacology resource illuminates target-adverse drug reaction associations of marketed drugs” (Nat Commun, 2023).

Experiments:
[1] = molecular target: T1, Alpha-2A adrenergic receptor (Homo sapiens, UniProt P08913); type: functional, cell-based
T1 sequence (P08913 whole entry): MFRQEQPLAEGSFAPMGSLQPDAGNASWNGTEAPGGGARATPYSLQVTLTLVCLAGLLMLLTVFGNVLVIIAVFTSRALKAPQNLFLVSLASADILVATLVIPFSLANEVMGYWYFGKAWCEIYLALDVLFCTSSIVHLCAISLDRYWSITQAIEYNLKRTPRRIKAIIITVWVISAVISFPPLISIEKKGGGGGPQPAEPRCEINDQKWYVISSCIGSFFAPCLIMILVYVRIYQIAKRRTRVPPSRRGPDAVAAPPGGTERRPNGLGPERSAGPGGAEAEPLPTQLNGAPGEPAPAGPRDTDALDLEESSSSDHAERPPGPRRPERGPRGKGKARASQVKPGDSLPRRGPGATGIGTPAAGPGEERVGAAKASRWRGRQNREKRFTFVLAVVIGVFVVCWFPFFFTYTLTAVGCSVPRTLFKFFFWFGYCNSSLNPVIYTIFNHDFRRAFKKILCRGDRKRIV

[2] = molecular target: T2, Alpha-2C adrenergic receptor (Homo sapiens, UniProt P18825); type: functional
T2 sequence (P18825 whole entry): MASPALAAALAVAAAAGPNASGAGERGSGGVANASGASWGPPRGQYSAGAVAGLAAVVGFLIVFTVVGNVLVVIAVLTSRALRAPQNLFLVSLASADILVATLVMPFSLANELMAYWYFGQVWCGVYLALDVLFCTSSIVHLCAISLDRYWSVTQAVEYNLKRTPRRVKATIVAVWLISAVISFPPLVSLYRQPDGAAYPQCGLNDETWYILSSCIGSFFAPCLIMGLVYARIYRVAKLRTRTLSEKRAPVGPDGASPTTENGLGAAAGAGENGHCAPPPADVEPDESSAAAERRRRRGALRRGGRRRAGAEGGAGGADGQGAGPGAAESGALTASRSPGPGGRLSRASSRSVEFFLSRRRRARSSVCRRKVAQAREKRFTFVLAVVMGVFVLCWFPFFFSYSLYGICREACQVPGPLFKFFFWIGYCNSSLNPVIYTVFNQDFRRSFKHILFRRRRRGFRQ

B2 bradykinin receptor = molecular target: T3, B2 bradykinin receptor (Homo sapiens, UniProt P30411)
T3 sequence (P30411 whole entry): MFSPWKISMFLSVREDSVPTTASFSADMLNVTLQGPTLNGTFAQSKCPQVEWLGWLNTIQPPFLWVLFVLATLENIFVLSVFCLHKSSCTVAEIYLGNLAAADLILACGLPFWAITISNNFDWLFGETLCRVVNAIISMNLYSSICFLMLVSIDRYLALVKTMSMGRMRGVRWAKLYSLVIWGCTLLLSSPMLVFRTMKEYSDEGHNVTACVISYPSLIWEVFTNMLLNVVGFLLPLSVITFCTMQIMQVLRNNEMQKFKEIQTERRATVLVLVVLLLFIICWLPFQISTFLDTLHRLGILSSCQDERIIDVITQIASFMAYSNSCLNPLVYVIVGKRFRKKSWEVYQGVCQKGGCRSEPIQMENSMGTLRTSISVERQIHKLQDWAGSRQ

[3] = molecular target: T4, Cholecystokinin receptor type A (Homo sapiens, UniProt P32238)
T4 sequence (P32238 whole entry): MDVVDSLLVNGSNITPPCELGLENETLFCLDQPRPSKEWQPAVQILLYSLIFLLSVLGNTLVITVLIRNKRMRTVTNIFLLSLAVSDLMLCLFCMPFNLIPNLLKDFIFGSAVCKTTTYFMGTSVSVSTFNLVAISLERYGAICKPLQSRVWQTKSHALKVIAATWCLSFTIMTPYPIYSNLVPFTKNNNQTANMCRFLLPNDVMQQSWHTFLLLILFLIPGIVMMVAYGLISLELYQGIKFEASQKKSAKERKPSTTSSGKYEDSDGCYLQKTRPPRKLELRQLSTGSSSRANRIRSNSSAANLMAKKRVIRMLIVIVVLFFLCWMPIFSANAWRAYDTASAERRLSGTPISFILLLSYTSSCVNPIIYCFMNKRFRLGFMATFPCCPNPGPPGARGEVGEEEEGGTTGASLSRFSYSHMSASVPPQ

Cannabinoid receptor 1 = Cannabinoid receptor 1 (Homo sapiens, UniProt P21554); type: functional, cell-based
Cannabinoid receptor 1, sequence (P21554 whole entry): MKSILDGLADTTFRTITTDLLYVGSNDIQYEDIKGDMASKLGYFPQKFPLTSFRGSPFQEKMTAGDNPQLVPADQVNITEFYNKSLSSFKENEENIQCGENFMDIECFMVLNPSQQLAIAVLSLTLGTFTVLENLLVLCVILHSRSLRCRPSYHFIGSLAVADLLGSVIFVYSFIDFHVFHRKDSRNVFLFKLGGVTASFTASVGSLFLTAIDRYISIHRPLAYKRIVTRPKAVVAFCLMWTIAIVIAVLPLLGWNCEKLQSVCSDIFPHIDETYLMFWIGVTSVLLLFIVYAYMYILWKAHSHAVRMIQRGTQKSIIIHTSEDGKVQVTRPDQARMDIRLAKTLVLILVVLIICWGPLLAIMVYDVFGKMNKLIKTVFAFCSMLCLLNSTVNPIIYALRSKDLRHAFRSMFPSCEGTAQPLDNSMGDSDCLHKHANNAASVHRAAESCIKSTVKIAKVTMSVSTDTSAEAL

D(1A) dopamine receptor = D(1A) dopamine receptor (Homo sapiens, UniProt P21728); type: functional, cell-based
D(1A) dopamine receptor, sequence (P21728 whole entry): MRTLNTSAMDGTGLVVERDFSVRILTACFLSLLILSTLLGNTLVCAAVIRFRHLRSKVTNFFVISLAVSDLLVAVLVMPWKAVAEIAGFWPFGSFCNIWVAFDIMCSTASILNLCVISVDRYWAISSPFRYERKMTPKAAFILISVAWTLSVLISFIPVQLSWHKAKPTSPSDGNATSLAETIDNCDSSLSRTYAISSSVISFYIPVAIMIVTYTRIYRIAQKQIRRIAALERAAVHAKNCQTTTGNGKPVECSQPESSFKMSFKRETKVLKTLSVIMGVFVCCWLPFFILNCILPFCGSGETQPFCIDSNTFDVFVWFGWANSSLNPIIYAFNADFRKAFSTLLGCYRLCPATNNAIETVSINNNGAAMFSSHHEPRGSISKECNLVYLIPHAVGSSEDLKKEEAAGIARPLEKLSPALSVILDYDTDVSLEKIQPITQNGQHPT

[4] = molecular target: T5, 5-hydroxytryptamine receptor 1A (Homo sapiens, UniProt P08908); type: functional, cell-based
T5 sequence (P08908 whole entry): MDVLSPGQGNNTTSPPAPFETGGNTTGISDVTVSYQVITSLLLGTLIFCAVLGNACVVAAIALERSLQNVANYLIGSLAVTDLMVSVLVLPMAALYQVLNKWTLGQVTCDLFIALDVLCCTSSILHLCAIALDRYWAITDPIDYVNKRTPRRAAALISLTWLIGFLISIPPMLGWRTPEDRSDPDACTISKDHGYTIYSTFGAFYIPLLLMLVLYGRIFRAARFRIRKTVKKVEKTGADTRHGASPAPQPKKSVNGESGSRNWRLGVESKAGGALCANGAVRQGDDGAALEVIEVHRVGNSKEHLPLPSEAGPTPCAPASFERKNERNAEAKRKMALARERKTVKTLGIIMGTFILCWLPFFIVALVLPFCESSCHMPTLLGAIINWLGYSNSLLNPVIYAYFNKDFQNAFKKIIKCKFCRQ

Melanocortin receptor 4 = Melanocortin receptor 4 (Homo sapiens, UniProt P32245)
Melanocortin receptor 4, sequence (P32245 whole entry): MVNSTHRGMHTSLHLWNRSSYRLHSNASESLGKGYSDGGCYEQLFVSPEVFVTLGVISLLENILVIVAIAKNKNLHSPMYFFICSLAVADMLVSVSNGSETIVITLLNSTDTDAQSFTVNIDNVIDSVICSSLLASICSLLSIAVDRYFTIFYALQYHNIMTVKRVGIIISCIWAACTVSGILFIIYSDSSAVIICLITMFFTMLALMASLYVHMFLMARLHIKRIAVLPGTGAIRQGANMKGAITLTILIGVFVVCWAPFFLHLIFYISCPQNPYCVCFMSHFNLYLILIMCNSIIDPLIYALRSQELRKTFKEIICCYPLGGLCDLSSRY

[5] = molecular target: T6, Neuropeptide Y receptor type 1 (Homo sapiens, UniProt P25929); conditions: read-out: AC50
T6 sequence (P25929 whole entry): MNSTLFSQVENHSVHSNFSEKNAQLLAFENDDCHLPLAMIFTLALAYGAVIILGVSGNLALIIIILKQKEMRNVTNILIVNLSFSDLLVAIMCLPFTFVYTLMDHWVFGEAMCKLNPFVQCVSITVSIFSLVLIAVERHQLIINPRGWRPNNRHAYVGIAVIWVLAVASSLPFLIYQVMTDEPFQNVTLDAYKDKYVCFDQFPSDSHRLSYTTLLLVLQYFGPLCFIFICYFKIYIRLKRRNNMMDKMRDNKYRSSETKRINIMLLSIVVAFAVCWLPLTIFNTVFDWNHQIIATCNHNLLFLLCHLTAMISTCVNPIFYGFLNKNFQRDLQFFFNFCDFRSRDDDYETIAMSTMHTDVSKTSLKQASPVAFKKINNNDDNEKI
Further: assay procedure not described here.

| Compound | AC50 [1] [µM] | AC50 [2] [µM] | AC50 (B2 bradykinin receptor) [µM] | AC50 [3] [µM] | AC50 (Cannabinoid receptor 1) [µM] | AC50 (D(1A) dopamine receptor) [µM] | AC50 [4] [µM] | AC50 (Melanocortin receptor 4) [µM] | AC50 [5] [µM] |
| --- | --- | --- | --- | --- | --- | --- | --- | --- | --- |
| CC(C)N(CCC(C(N)=O)(c1ccccc1)c1ccccn1)C(C)C (centres undefined) [DISOPYRAMIDE] | > 10 | > 10 | > 30 | > 30 | > 30 | > 10 | > 10 | > 30 | > 30 |
| C[C@]12C=CC(=O)N[C@@H]1CC[C@@H]1[C@@H]2CC[C@]2(C)[C@@H](C(=O)Nc3cc(C(F)(F)F)ccc3C(F)(F)F)CC[C@@H]12 [DUTASTERIDE] | > 10 | > 10 | > 10 | > 10 | > 30 | > 10 | > 10 | > 10 | > 10 |
| O=C1C(CC[S+]([O-])c2ccccc2)C(=O)N(c2ccccc2)N1c1ccccc1 (centres undefined) [SULFINPYRAZONE] | > 30 | > 10 | > 10 | > 10 | > 30 | > 10 | > 30 | > 10 | > 10 |
| Nc1ccc(S(=O)(=O)Nc2nccs2)cc1 [SULFATHIAZOLE] | > 10 | > 10 | > 30 | > 30 | > 30 | > 10 | > 10 | > 30 | > 30 |
| CO[C@H]1/C=C/O[C@@]2(C)Oc3c(C)c(O)c4c(O)c(c(/C=N/N5CCN(C)CC5)c(O)c4c3C2=O)NC(=O)/C(C)=C\C=C\[C@H](C)[C@H](O)[C@@H](C)[C@@H](O)[C@@H](C)[C@H](OC(C)=O)[C@@H]1C [RIFAMPIN] | > 30 | 11 | 18.6 | 17.1 | > 30 | > 30 | > 30 | > 30 | 22.5 |
| CC(C)Cc1ccc(C(C)C(=O)O)cc1 (centres undefined) [IBUPROFEN] | > 10 | > 10 | > 30 | > 30 | > 30 | > 10 | > 10 | > 30 | > 30 |
| Cc1onc(-c2ccccc2)c1-c1ccc(S(N)(=O)=O)cc1 [VALDECOXIB] | > 10 | > 10 | > 30 | > 30 | > 30 | > 10 | > 10 | > 30 | > 30 |
| O=C1CCc2cc(OCCCCc3nnnn3C3CCCCC3)ccc2N1 [CILOSTAZOL] | > 30 | > 30 | > 30 | > 30 | > 30 | > 30 | > 30 | > 30 | > 30 |
| CN(C)CCc1c[nH]c2ccc(Cn3cncn3)cc12 [RIZATRIPTAN] | > 30 | 20.8 | > 30 | > 30 | > 30 | > 30 |  | > 30 | > 30 |
| COc1cc2nc(N3CCN(C(=O)C4CCCO4)CC3)nc(N)c2cc1OC (centres undefined) [TERAZOSIN] | > 30 |  | > 30 | > 30 | > 30 | > 10 | > 10 | > 30 | > 30 |
| O=C1CN(/N=C/c2ccc(-c3ccc([N+](=O)[O-])cc3)o2)C(O)=N1 [DANTROLENE] | > 10 | > 10 | > 10 | > 10 |  | > 10 | > 10 | > 10 | > 10 |
| C[C@@H](Oc1cc(-c2cnn(C3CCNCC3)c2)cnc1N)c1c(Cl)ccc(F)c1Cl [CRIZOTINIB] | 15 | 1.2 |  | > 30 | > 10 | > 30 | > 10 | 19.8 | 8.44 |
